Consider 5 compounds from PubChem BioAssay AID2060494 (Molecular Pharmacology Branch, DTP, NCI, 2025).

Where only a bound is given, the exact number is not on record here.
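Note: spheroids exposed to the agents for seven days before readout.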
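Throughout, for viability, T/C: percent of vehicle control viability with DMSO wells as 100%.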

For one experiment, the system named is 435261-313-R-J1-PDC complex spheroid viability. Nature of the experiment: Anticancer human tumor 435261-313-R-J1-PDC patient-derived colon adenocarcinoma cell line growth inhibition [GQUAD]. The conditions noted are these: curve of first compound; second compound 10 µM. In outline:
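Multi-cell-type spheroids of tumor cells with HUVEC and mesenchymal stem cells, treated with drug combinations. Concentrations descend in half-log steps from near clinical Cmax, or from 10 microM where Cmax is unknown; viability read-out.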
Regarding `CC1COCCN1c1cc(-c2ccnn2C)c2ccnc(-c3ccn[nH]3)c2n1` (stereo unspecified) + CN(C)c1ccc(Nc2c3ccc(NC(=O)CCN4CCCC4)cc3nc3cc(NC(=O)CCN4CCCC4)ccc23)cc1, the IC50 was under 31.6 nM.

On to `CC1COCCN1c1cc(C2(S(C)(=N)=O)CC2)nc(-c2ccnc3[nH]ccc23)n1` (stereo unspecified) + CN(C)c1ccc(Nc2c3ccc(NC(=O)CCN4CCCC4)cc3nc3cc(NC(=O)CCN4CCCC4)ccc23)cc1, for which the IC50 came to 88.3 nM.

Take `COc1ccc([C@@H](O)c2cc(-c3ncnc4cc(N5CCOCC5)ccc34)c(F)cc2Cl)nn1` + CN(C)c1ccc(Nc2c3ccc(NC(=O)CCN4CCCC4)cc3nc3cc(NC(=O)CCN4CCCC4)ccc23)cc1: the IC50 was 134 nM.

Regarding `O=C(c1cc(Cc2n[nH]c(=O)c3ccccc23)ccc1F)N1CCN(C(=O)C2CC2)CC1` + CN(C)c1ccc(Nc2c3ccc(NC(=O)CCN4CCCC4)cc3nc3cc(NC(=O)CCN4CCCC4)ccc23)cc1, the IC50 was under 31.6 nM.

The experiment is the same for the next values; noted with them: second compound 0.0316 µM; first compound 0.0316 µM; stronger effect = lower value.
On to `CC(C)n1c(=O)n(C)c2cnc3cc(F)c(-c4ccc(OCCCN5CCCCC5)nc4)cc3c21` + CN(C)c1ccc(Nc2c3ccc(NC(=O)CCN4CCCC4)cc3nc3cc(NC(=O)CCN4CCCC4)ccc23)cc1, for which the viability, T/C was 127%.

Regarding `CC1COCCN1c1cc(-c2ccnn2C)c2ccnc(-c3ccn[nH]3)c2n1` (stereo unspecified) + CN(C)c1ccc(Nc2c3ccc(NC(=O)CCN4CCCC4)cc3nc3cc(NC(=O)CCN4CCCC4)ccc23)cc1, the viability, T/C was 87%.

For the compound `CC1COCCN1c1cc(C2(S(C)(=N)=O)CC2)nc(-c2ccnc3[nH]ccc23)n1` (stereo unspecified) + CN(C)c1ccc(Nc2c3ccc(NC(=O)CCN4CCCC4)cc3nc3cc(NC(=O)CCN4CCCC4)ccc23)cc1, the viability, T/C was 153%.

On to `COc1ccc([C@@H](O)c2cc(-c3ncnc4cc(N5CCOCC5)ccc34)c(F)cc2Cl)nn1` + CN(C)c1ccc(Nc2c3ccc(NC(=O)CCN4CCCC4)cc3nc3cc(NC(=O)CCN4CCCC4)ccc23)cc1, for which the viability, T/C is 99%.

In the case of `O=C(c1cc(Cc2n[nH]c(=O)c3ccccc23)ccc1F)N1CCN(C(=O)C2CC2)CC1` + CN(C)c1ccc(Nc2c3ccc(NC(=O)CCN4CCCC4)cc3nc3cc(NC(=O)CCN4CCCC4)ccc23)cc1, the viability, T/C was 96%.

Staying with this experiment, now noted: second compound 0.0316 µM; first compound 0.1 µM; stronger effect = lower value.
As for `CC(C)n1c(=O)n(C)c2cnc3cc(F)c(-c4ccc(OCCCN5CCCCC5)nc4)cc3c21` + CN(C)c1ccc(Nc2c3ccc(NC(=O)CCN4CCCC4)cc3nc3cc(NC(=O)CCN4CCCC4)ccc23)cc1, the viability, T/C is 103%.

In the case of `CC1COCCN1c1cc(-c2ccnn2C)c2ccnc(-c3ccn[nH]3)c2n1` (stereo unspecified) + CN(C)c1ccc(Nc2c3ccc(NC(=O)CCN4CCCC4)cc3nc3cc(NC(=O)CCN4CCCC4)ccc23)cc1, the viability, T/C was 76%.

`CC1COCCN1c1cc(C2(S(C)(=N)=O)CC2)nc(-c2ccnc3[nH]ccc23)n1` (stereo unspecified) + CN(C)c1ccc(Nc2c3ccc(NC(=O)CCN4CCCC4)cc3nc3cc(NC(=O)CCN4CCCC4)ccc23)cc1: the viability, T/C is 99.2%.

In the case of `COc1ccc([C@@H](O)c2cc(-c3ncnc4cc(N5CCOCC5)ccc34)c(F)cc2Cl)nn1` + CN(C)c1ccc(Nc2c3ccc(NC(=O)CCN4CCCC4)cc3nc3cc(NC(=O)CCN4CCCC4)ccc23)cc1, the viability, T/C is 120%.

On to `O=C(c1cc(Cc2n[nH]c(=O)c3ccccc23)ccc1F)N1CCN(C(=O)C2CC2)CC1` + CN(C)c1ccc(Nc2c3ccc(NC(=O)CCN4CCCC4)cc3nc3cc(NC(=O)CCN4CCCC4)ccc23)cc1, for which the viability, T/C was 133%.

Staying with this experiment, now noted: second compound 0.0316 µM; first compound 0.316 µM; stronger effect = lower value.
In the case of `CC(C)n1c(=O)n(C)c2cnc3cc(F)c(-c4ccc(OCCCN5CCCCC5)nc4)cc3c21` + CN(C)c1ccc(Nc2c3ccc(NC(=O)CCN4CCCC4)cc3nc3cc(NC(=O)CCN4CCCC4)ccc23)cc1, the viability, T/C was 92.8%.

As for `CC1COCCN1c1cc(-c2ccnn2C)c2ccnc(-c3ccn[nH]3)c2n1` (stereo unspecified) + CN(C)c1ccc(Nc2c3ccc(NC(=O)CCN4CCCC4)cc3nc3cc(NC(=O)CCN4CCCC4)ccc23)cc1, the viability, T/C was 76.2%.

As to `CC1COCCN1c1cc(C2(S(C)(=N)=O)CC2)nc(-c2ccnc3[nH]ccc23)n1` (stereo unspecified) + CN(C)c1ccc(Nc2c3ccc(NC(=O)CCN4CCCC4)cc3nc3cc(NC(=O)CCN4CCCC4)ccc23)cc1, the viability, T/C was 71.8%.

Regarding `COc1ccc([C@@H](O)c2cc(-c3ncnc4cc(N5CCOCC5)ccc34)c(F)cc2Cl)nn1` + CN(C)c1ccc(Nc2c3ccc(NC(=O)CCN4CCCC4)cc3nc3cc(NC(=O)CCN4CCCC4)ccc23)cc1, the viability, T/C was 108%.

With `O=C(c1cc(Cc2n[nH]c(=O)c3ccccc23)ccc1F)N1CCN(C(=O)C2CC2)CC1` + CN(C)c1ccc(Nc2c3ccc(NC(=O)CCN4CCCC4)cc3nc3cc(NC(=O)CCN4CCCC4)ccc23)cc1, the viability, T/C is 84.8%.

Still in this experiment, the particulars now being: second compound 0.0316 µM; first compound 1 µM; stronger effect = lower value.
Regarding `CC(C)n1c(=O)n(C)c2cnc3cc(F)c(-c4ccc(OCCCN5CCCCC5)nc4)cc3c21` + CN(C)c1ccc(Nc2c3ccc(NC(=O)CCN4CCCC4)cc3nc3cc(NC(=O)CCN4CCCC4)ccc23)cc1, the viability, T/C was 98.6%.

As for `CC1COCCN1c1cc(-c2ccnn2C)c2ccnc(-c3ccn[nH]3)c2n1` (stereo unspecified) + CN(C)c1ccc(Nc2c3ccc(NC(=O)CCN4CCCC4)cc3nc3cc(NC(=O)CCN4CCCC4)ccc23)cc1, the viability, T/C is 43.6%.

For the compound `CC1COCCN1c1cc(C2(S(C)(=N)=O)CC2)nc(-c2ccnc3[nH]ccc23)n1` (stereo unspecified) + CN(C)c1ccc(Nc2c3ccc(NC(=O)CCN4CCCC4)cc3nc3cc(NC(=O)CCN4CCCC4)ccc23)cc1, the viability, T/C was 98%.

For the compound `COc1ccc([C@@H](O)c2cc(-c3ncnc4cc(N5CCOCC5)ccc34)c(F)cc2Cl)nn1` + CN(C)c1ccc(Nc2c3ccc(NC(=O)CCN4CCCC4)cc3nc3cc(NC(=O)CCN4CCCC4)ccc23)cc1, the viability, T/C is 83.9%.

With `O=C(c1cc(Cc2n[nH]c(=O)c3ccccc23)ccc1F)N1CCN(C(=O)C2CC2)CC1` + CN(C)c1ccc(Nc2c3ccc(NC(=O)CCN4CCCC4)cc3nc3cc(NC(=O)CCN4CCCC4)ccc23)cc1, the viability, T/C was 80.8%.

Staying with this experiment, now noted: second compound 0.0316 µM; first compound 3.16 µM; stronger effect = lower value.
On to `CC(C)n1c(=O)n(C)c2cnc3cc(F)c(-c4ccc(OCCCN5CCCCC5)nc4)cc3c21` + CN(C)c1ccc(Nc2c3ccc(NC(=O)CCN4CCCC4)cc3nc3cc(NC(=O)CCN4CCCC4)ccc23)cc1, for which the viability, T/C was 89.2%.

In the case of `CC1COCCN1c1cc(-c2ccnn2C)c2ccnc(-c3ccn[nH]3)c2n1` (stereo unspecified) + CN(C)c1ccc(Nc2c3ccc(NC(=O)CCN4CCCC4)cc3nc3cc(NC(=O)CCN4CCCC4)ccc23)cc1, the viability, T/C is 28.8%.

The term IC50 denotes the concentration that inhibits the measured activity by half. The viability, T/C is the ratio of treated to control.
